In patent publication US8137705B2 (priority 2005, dated 2012):

What was measured:
Format in all cases: cell-based
[1] = system: E. coli O157:H7; assay: E. coli O157:H7 counts in water containing rumen content or feces treated with chemicals or chemical combinations; settings: for E. coli O157:H7 counts (log10 cfu/ml) at min 0 / E. coli O157:H7 counts (log10 cfu/ml) at min 2 / E. coli O157:H7 counts (log10 cfu/ml) at min 5 / E. coli O157:H7 counts (log10 cfu/ml) at min 10 / E. coli O157:H7 counts (log10 cfu/ml) at min 20 / E. coli O157:H7 counts (log10 cfu/ml) at min 30 / E. coli O157:H7 counts (log10 cfu/ml) at min 60 / E. coli O157:H7 counts (log10 cfu/ml) at min 120: 21° C.; for E. coli O157:H7 counts (log10 cfu/ml) at min 0: 0 min; for E. coli O157:H7 counts (log10 cfu/ml) at min 2: 2 min; for E. coli O157:H7 counts (log10 cfu/ml) at min 5: 5 min; for E. coli O157:H7 counts (log10 cfu/ml) at min 10: 10 min; for E. coli O157:H7 counts (log10 cfu/ml) at min 20: 20 min; for E. coli O157:H7 counts (log10 cfu/ml) at min 30: 30 min; for E. coli O157:H7 counts (log10 cfu/ml) at min 60: 60 min; for E. coli O157:H7 counts (log10 cfu/ml) at min 120: 120 min
[2] = system: E. coli O111:NM; assay: E. coli O111:NM counts in water containing rumen content or feces treated with chemical combinations; settings: 21° C.; for E. coli O111:NM counts (log10 cfu/ml) at min 0: 0 min; for E. coli O111:NM counts (log10 cfu/ml) at min 2: 2 min; for E. coli O111:NM counts (log10 cfu/ml) at min 5: 5 min; for E. coli O111:NM counts (log10 cfu/ml) at min 10: 10 min; for E. coli O111:NM counts (log10 cfu/ml) at min 20: 20 min; for E. coli O111:NM counts (log10 cfu/ml) at min 30: 30 min; for E. coli O111:NM counts (log10 cfu/ml) at min 60: 60 min; for E. coli O111:NM counts (log10 cfu/ml) at min 120: 120 min
[3] = system: E. coli O26:H11; assay: E. coli O26:H11 counts in water containing rumen content or feces treated with chemical combinations; settings: 21° C.; for E. coli O26:H11 counts (log10 cfu/ml) at min: 0: 0 min; for E. coli O26:H11 counts (log10 cfu/ml) at min: 2: 2 min; for E. coli O26:H11 counts (log10 cfu/ml) at min: 5: 5 min; for E. coli O26:H11 counts (log10 cfu/ml) at min: 10: 10 min; for E. coli O26:H11 counts (log10 cfu/ml) at min: 20: 20 min; for E. coli O26:H11 counts (log10 cfu/ml) at min: 30: 30 min; for E. coli O26:H11 counts (log10 cfu/ml) at min: 60: 60 min; for E. coli O26:H11 counts (log10 cfu/ml) at min: 120: 120 min
[4] = water containing feces (20:1, v/w)
[5] = water containing rumen content (10:1, v/w)

O=C([O-])c1ccccc1.[Na+] [0.1% sodium benzoate, sodium benzoate]
E. coli O157:H7 counts (log10 cfu/ml) at min 0 [1, 4]: 5.7 log10 cfu/ml | E. coli O157:H7 counts (log10 cfu/ml) at min 2 [1, 4]: 5.6 log10 cfu/ml | E. coli O157:H7 counts (log10 cfu/ml) at min 5 [1, 4]: 5.4 log10 cfu/ml | E. coli O157:H7 counts (log10 cfu/ml) at min 10 [1, 4]: 5.6 log10 cfu/ml | E. coli O157:H7 counts (log10 cfu/ml) at min 20 [1, 4]: 5.5 log10 cfu/ml | E. coli O157:H7 counts (log10 cfu/ml) at min 30 [1, 4]: 5.4 log10 cfu/ml | E. coli O157:H7 counts (log10 cfu/ml) at min 60 [1, 4]: 5.5 log10 cfu/ml | E. coli O157:H7 counts (log10 cfu/ml) at min 120 [1, 4]: 5.6 log10 cfu/ml | E. coli O157:H7 counts (log10 cfu/ml) at min 0 [1, 5]: 5.9 log10 cfu/ml | E. coli O157:H7 counts (log10 cfu/ml) at min 2 [1, 5]: 6.0 log10 cfu/ml | E. coli O157:H7 counts (log10 cfu/ml) at min 5 [1, 5]: 6.0 log10 cfu/ml | E. coli O157:H7 counts (log10 cfu/ml) at min 10 [1, 5]: 5.9 log10 cfu/ml | E. coli O157:H7 counts (log10 cfu/ml) at min 20 [1, 5]: 6.0 log10 cfu/ml | E. coli O157:H7 counts (log10 cfu/ml) at min 30 [1, 5]: 5.9 log10 cfu/ml | E. coli O157:H7 counts (log10 cfu/ml) at min 60 [1, 5]: 6.0 log10 cfu/ml | E. coli O157:H7 counts (log10 cfu/ml) at min 120 [1, 5]: 6.1 log10 cfu/ml | E. coli O111:NM counts (log10 cfu/ml) at min 0 [2, 4]: 5.6 log10 cfu/ml | E. coli O111:NM counts (log10 cfu/ml) at min 2 [2, 4]: 5.6 log10 cfu/ml | E. coli O111:NM counts (log10 cfu/ml) at min 5 [2, 4]: 5.6 log10 cfu/ml | E. coli O111:NM counts (log10 cfu/ml) at min 10 [2, 4]: 5.7 log10 cfu/ml | E. coli O111:NM counts (log10 cfu/ml) at min 20 [2, 4]: 5.6 log10 cfu/ml | E. coli O111:NM counts (log10 cfu/ml) at min 30 [2, 4]: 5.5 log10 cfu/ml | E. coli O111:NM counts (log10 cfu/ml) at min 60 [2, 4]: 5.5 log10 cfu/ml | E. coli O111:NM counts (log10 cfu/ml) at min 120 [2, 4]: 5.6 log10 cfu/ml | E. coli O111:NM counts (log10 cfu/ml) at min 0 [2, 5]: 5.6 log10 cfu/ml | E. coli O111:NM counts (log10 cfu/ml) at min 2 [2, 5]: 5.6 log10 cfu/ml | E. coli O111:NM counts (log10 cfu/ml) at min 5 [2, 5]: 5.5 log10 cfu/ml | E. coli O111:NM counts (log10 cfu/ml) at min 10 [2, 5]: 5.6 log10 cfu/ml | E. coli O111:NM counts (log10 cfu/ml) at min 20 [2, 5]: 5.6 log10 cfu/ml | E. coli O111:NM counts (log10 cfu/ml) at min 30 [2, 5]: 5.5 log10 cfu/ml | E. coli O111:NM counts (log10 cfu/ml) at min 60 [2, 5]: 5.4 log10 cfu/ml | E. coli O111:NM counts (log10 cfu/ml) at min 120 [2, 5]: 5.5 log10 cfu/ml | E. coli O26:H11 counts (log10 cfu/ml) at min: 0 [3, 4]: 5.5 log10 cfu/ml | E. coli O26:H11 counts (log10 cfu/ml) at min: 2 [3, 4]: 5.4 log10 cfu/ml | E. coli O26:H11 counts (log10 cfu/ml) at min: 5 [3, 4]: 5.5 log10 cfu/ml | E. coli O26:H11 counts (log10 cfu/ml) at min: 10 [3, 4]: 5.4 log10 cfu/ml | E. coli O26:H11 counts (log10 cfu/ml) at min: 20 [3, 4]: 5.5 log10 cfu/ml | E. coli O26:H11 counts (log10 cfu/ml) at min: 30 [3, 4]: 5.4 log10 cfu/ml | E. coli O26:H11 counts (log10 cfu/ml) at min: 60 [3, 4]: 5.5 log10 cfu/ml | E. coli O26:H11 counts (log10 cfu/ml) at min: 120 [3, 4]: 5.4 log10 cfu/ml | E. coli O26:H11 counts (log10 cfu/ml) at min: 0 [3, 5]: 5.6 log10 cfu/ml | E. coli O26:H11 counts (log10 cfu/ml) at min: 2 [3, 5]: 5.5 log10 cfu/ml | E. coli O26:H11 counts (log10 cfu/ml) at min: 5 [3, 5]: 5.4 log10 cfu/ml | E. coli O26:H11 counts (log10 cfu/ml) at min: 10 [3, 5]: 5.5 log10 cfu/ml | E. coli O26:H11 counts (log10 cfu/ml) at min: 20 [3, 5]: 5.5 log10 cfu/ml | E. coli O26:H11 counts (log10 cfu/ml) at min: 30 [3, 5]: 5.5 log10 cfu/ml | E. coli O26:H11 counts (log10 cfu/ml) at min: 60 [3, 5]: 5.4 log10 cfu/ml | E. coli O26:H11 counts (log10 cfu/ml) at min: 120 [3, 5]: 5.5 log10 cfu/ml

CCCC(=O)O [0.5% butyric acid, butyric acid]
inactivation of E. coli O157:H7 within 20 minutes ([1]; butyric acid >2%, caprylic acid >0.1%, data not shown): substantial inactivation | E. coli O157:H7 counts (log10 cfu/ml) at min 0 [1, 4]: 6.0 log10 cfu/ml | E. coli O157:H7 counts (log10 cfu/ml) at min 2 [1, 4]: 6.0 log10 cfu/ml | E. coli O157:H7 counts (log10 cfu/ml) at min 5 [1, 4]: 6.0 log10 cfu/ml | E. coli O157:H7 counts (log10 cfu/ml) at min 10 [1, 4]: 6.1 log10 cfu/ml | E. coli O157:H7 counts (log10 cfu/ml) at min 20 [1, 4]: 6.1 log10 cfu/ml | E. coli O157:H7 counts (log10 cfu/ml) at min 30 [1, 4]: 6.1 log10 cfu/ml | E. coli O157:H7 counts (log10 cfu/ml) at min 60 [1, 4]: 6.0 log10 cfu/ml | E. coli O157:H7 counts (log10 cfu/ml) at min 120 [1, 4]: 6.0 log10 cfu/ml | E. coli O157:H7 counts (log10 cfu/ml) at min 0 [1, 5]: 5.9 log10 cfu/ml | E. coli O157:H7 counts (log10 cfu/ml) at min 2 [1, 5]: 5.9 log10 cfu/ml | E. coli O157:H7 counts (log10 cfu/ml) at min 5 [1, 5]: 5.9 log10 cfu/ml | E. coli O157:H7 counts (log10 cfu/ml) at min 10 [1, 5]: 5.8 log10 cfu/ml | E. coli O157:H7 counts (log10 cfu/ml) at min 20 [1, 5]: 5.7 log10 cfu/ml | E. coli O157:H7 counts (log10 cfu/ml) at min 30 [1, 5]: 5.8 log10 cfu/ml | E. coli O157:H7 counts (log10 cfu/ml) at min 60 [1, 5]: 5.6 log10 cfu/ml | E. coli O157:H7 counts (log10 cfu/ml) at min 120 [1, 5]: 5.7 log10 cfu/ml | E. coli O111:NM counts (log10 cfu/ml) at min 0 [2, 4]: 5.6 log10 cfu/ml | E. coli O111:NM counts (log10 cfu/ml) at min 2 [2, 4]: 5.6 log10 cfu/ml | E. coli O111:NM counts (log10 cfu/ml) at min 5 [2, 4]: 5.5 log10 cfu/ml | E. coli O111:NM counts (log10 cfu/ml) at min 10 [2, 4]: 5.6 log10 cfu/ml | E. coli O111:NM counts (log10 cfu/ml) at min 20 [2, 4]: 5.6 log10 cfu/ml | E. coli O111:NM counts (log10 cfu/ml) at min 30 [2, 4]: 5.6 log10 cfu/ml | E. coli O111:NM counts (log10 cfu/ml) at min 60 [2, 4]: 5.6 log10 cfu/ml | E. coli O111:NM counts (log10 cfu/ml) at min 120 [2, 4]: 5.6 log10 cfu/ml | E. coli O111:NM counts (log10 cfu/ml) at min 0 [2, 5]: 5.5 log10 cfu/ml | E. coli O111:NM counts (log10 cfu/ml) at min 2 [2, 5]: 5.5 log10 cfu/ml | E. coli O111:NM counts (log10 cfu/ml) at min 5 [2, 5]: 5.5 log10 cfu/ml | E. coli O111:NM counts (log10 cfu/ml) at min 10 [2, 5]: 5.6 log10 cfu/ml | E. coli O111:NM counts (log10 cfu/ml) at min 20 [2, 5]: 5.6 log10 cfu/ml | E. coli O111:NM counts (log10 cfu/ml) at min 30 [2, 5]: 5.4 log10 cfu/ml | E. coli O111:NM counts (log10 cfu/ml) at min 60 [2, 5]: 5.5 log10 cfu/ml | E. coli O111:NM counts (log10 cfu/ml) at min 120 [2, 5]: 5.6 log10 cfu/ml | E. coli O26:H11 counts (log10 cfu/ml) at min: 0 [3, 4]: 5.5 log10 cfu/ml | E. coli O26:H11 counts (log10 cfu/ml) at min: 2 [3, 4]: 5.4 log10 cfu/ml | E. coli O26:H11 counts (log10 cfu/ml) at min: 5 [3, 4]: 5.4 log10 cfu/ml | E. coli O26:H11 counts (log10 cfu/ml) at min: 10 [3, 4]: 5.4 log10 cfu/ml | E. coli O26:H11 counts (log10 cfu/ml) at min: 20 [3, 4]: 5.5 log10 cfu/ml | E. coli O26:H11 counts (log10 cfu/ml) at min: 30 [3, 4]: 5.2 log10 cfu/ml | E. coli O26:H11 counts (log10 cfu/ml) at min: 60 [3, 4]: 5.2 log10 cfu/ml | E. coli O26:H11 counts (log10 cfu/ml) at min: 120 [3, 4]: 5.0 log10 cfu/ml | E. coli O26:H11 counts (log10 cfu/ml) at min: 0 [3, 5]: 5.4 log10 cfu/ml | E. coli O26:H11 counts (log10 cfu/ml) at min: 2 [3, 5]: 5.4 log10 cfu/ml | E. coli O26:H11 counts (log10 cfu/ml) at min: 5 [3, 5]: 5.3 log10 cfu/ml | E. coli O26:H11 counts (log10 cfu/ml) at min: 10 [3, 5]: 5.4 log10 cfu/ml | E. coli O26:H11 counts (log10 cfu/ml) at min: 20 [3, 5]: 5.4 log10 cfu/ml | E. coli O26:H11 counts (log10 cfu/ml) at min: 30 [3, 5]: 5.2 log10 cfu/ml | E. coli O26:H11 counts (log10 cfu/ml) at min: 60 [3, 5]: 5.4 log10 cfu/ml | E. coli O26:H11 counts (log10 cfu/ml) at min: 120 [3, 5]: 5.1 log10 cfu/ml
